Measured values: patent publication US4357425A, “Process for producing L-amino acid oxidase” (Toyo Jozo Company, Ltd., priority 1980, dated 1982)
“And” between values parts separate entries of the source, which are not always exact repeats. Equal entries are not always repeated.

Assays:
Assay type in all cases: biochemical, Colletotrichum sp. M5073
L-amino acid oxidase [1] = experiment: Inhibition and activation of L-amino acid oxidase by metallic ions or other additives; conditions: 1 mM additive, 0.01 U of the enzyme; None = 100
Description: (§1) 0.9 ml of a reaction solution of the following composition is placed in a small test tube and warmed to 37° C.
(§2) 0.1 ml of a liquid containing L-amino acid oxidase is added thereto and reaction continued for exactly for 10 minutes at 37° C. The reaction was terminated by adding 2.0 ml of ethanol. Then, the amount of hydrogen peroxide formed is colorimetrically determined from absorbance measured at 480 nm. The enzymatic activity is determined from the amount of the hydrogen peroxide formed with the following equation: […]
(§3) The amount of the enzyme which produces 1μ mole of hydrogen peroxide at 37° C. in one minute is defined as one unit (1 U).
The enzymatic activities of the enzyme are measured with the same procedures as the measurement of the enzyme activity using 0.01 U of the enzyme, and adding 1 mM of various metallic ions or other additives as shown in Table 2 below to the reaction solution. Cyano ion has a strong inhibiting effect on the enzyme and no ion is found to have an activating effect on the enzyme.

L-amino acid oxidase [2] = experiment: Substrate specificity of L-amino acid oxidase (enzyme activity measurement, H2O2 colorimetry); conditions: for Relative activity (%) on substrate: 5 m mole of the substrate, 0.007 U of the enzyme, 37° C., 10 minutes, L-Leucine = 100
Description: as §1, §2, §3
Enzymatic activities of the enzyme on various substrates as shown in the Table 1 below are measured with the same procedures as the measurement of the enzyme activity by using 5 m mole of the substrate and 0.007 U of the enzyme.

L-amino acid oxidase [3] = experiment: Km value of L-amino acid oxidase; conditions: upon L-leucine

Compound | Relative activity (%) with additive (L-amino acid oxidase [1]) [%] | Relative activity (%) on substrate (L-amino acid oxidase [2]) | other results
[Cl][Mn][Cl] [MnCl2] | 97.1 |  | 
NCC(=O)O [L-Glycin] |  | 0.0% | 
[Ba+2].[Cl-].[Cl-] [BaCl2] | 97.1 |  | 
CSCC[C@H](N)C(=O)O [L-Methionine] |  | 93.6% | 
[N-]=[N+]=[N-].[Na+] [NaN3] | 100 |  | 
CC(C)C[C@H](N)C(=O)O [L-Leucine] |  | 100.0% | Km (L-amino acid oxidase [3]): 170 µM; Enzyme acts upon substrate (L-amino acid oxidase [2]): acts upon
CC[C@H](C)[C@H](N)C(=O)O [L-Isoleucine] |  | 29.1% | 
N[C@H](Cc1ccccc1)C(=O)O [D-Phenylalanine] |  | 0.0% | 
C[C@H](N)C(=O)O [L-Alanine] |  | 12.3% | 
N[C@@H](Cc1c[nH]cn1)C(=O)O [L-Histidine] |  | 11.8% | 
N[C@@H](CC(=O)O)C(=O)O [L-Aspartic acid] |  | 0.0% | 
[Ca+2].[Cl-].[Cl-] [CaCl2] | 95.4 |  | 
[F-].[Na+] [NaF] | 97.9 |  | 
N=C(N)NCCC[C@H](N)C(=O)O [L-Arginine] |  | 39.9% | 
N[C@@H](Cc1ccccc1)C(=O)O [L-Phenylalanine] |  | 70.0% | 
NCCCC[C@H](N)C(=O)O [L-Lysine] |  | 29.6% | 
N[C@@H](CO)C(=O)O [L-Serine] |  | 0.0% | 
N[C@@H](CCC(=O)O)C(=O)O [L-Glutamic acid] |  | 0.0% | 
Cl.N [NH4 Cl] | 97.1 |  | 
[Cl-].[Li+] [LiCl] | 97.5 |  | 
CC[C@H](C)[C@H](N)C(=O)O (racemic) [DL-Isoleucine] |  | 15.3% | 
C[C@@H](N)C(=O)O [D-Alanine] |  | 0.0% | 
[Cl-].[Cl-].[Zn+2] [ZnCl2] | 94.2 |  | 
[Cl-].[Cl-].[Mg+2] [MgCl2] | 99.2 |  | 
NC(Cc1c[nH]c2ccccc12)C(=O)O (racemic) [DL-Tryptophan] |  | 27.1% | 
N[C@@H](Cc1ccc(O)cc1)C(=O)O [L-Tyrosine] |  | 22.2% | 
N[C@@H](CS)C(=O)O [L-Cysteine] |  | 6.4% and 0.0% | 
O=C(O)CN(CCN(CC(=O)O)CC(=O)O)CC(=O)O [EDTA] | 100 |  | 
[Cl-].[Cl-].[Co+2] [CoCl2] | 50.6 |  | 
